# Tests used:
# [1] = test system: H1975; experiment: Caspase 3/7 apoptosis assay; assay type: cell-based; details: 10 nM, normalized to mock
# Method: (§1) Depending on cancer cell type 3000-6000 cells were seeded in a 96 well plate. After cells attached, they were transfected with different concentrations of miRNA-193a and apoptosis induction was measured at different time points. This assay was performed using Promega kit. 100 uL of caspase reagent was added to 100 uL of media in each well in 96-well plate and incubated for 2 hours in the dark at room temperature. The luminescent signal was read on a luminescent plate reader.
# (§2) Different biological effects of miRNA-193a-3p have been tested in various cancer cell lines (see Table 13). For this, various cells were treated with miRNA-193a at different concentrations (1, 3, 10 nM). For all experiments controls (untreated, mock and scrambled) were measured. All assays were performed at 24h, 48h and 72h time points. Data shown in Table 13 are the results for miRNA-193a at 10 nM concentration at indicated time points. All the results have been quantified and normalized to the mock control.
# (§3) miRNA-193a treatment in various cancer cell lines decreased cell viability over time as measured by either an MTS assay or by cell count. It enhanced apoptosis induction over time as measured by a caspase 3/7 apoptosis assay. […] It is of note that due to intrinsic characteristics and gene mutation status of each cell line, performing one method to detect apoptosis is not always ideal for all cell lines.
# [2] = test system: EMT6; experiment: Caspase 3/7 apoptosis assay; assay type: cell-based; details: 10 nM, normalized to mock
# Method: as §1, §2, §3
# [3] = test system: Panc-1; experiment: Caspase 3/7 apoptosis assay; assay type: cell-based; details: 10 nM, normalized to mock
# Method: as §1, §2, §3
# [4] = test system: H1299; experiment: Caspase 3/7 apoptosis assay; assay type: cell-based; details: 10 nM, normalized to mock
# Method: as §1, §2, §3
# [5] = test system: HCT116; experiment: Caspase 3/7 apoptosis assay; assay type: cell-based; details: 10 nM, normalized to mock
# Method: as §1, §2, §3
# [6] = test system: HeP3B, SNU449; experiment: Caspase 3/7 apoptosis assay; assay type: cell-based, human; details: 10 nM, normalized to mock
# Method: as §1, §2, §3
# [7] = test system: A2058; experiment: Caspase 3/7 apoptosis assay; assay type: cell-based, human; details: 10 nM, normalized to mock
# Method: as §1, §2, §3
# [8] = test system: A549, H460; experiment: Caspase 3/7 apoptosis assay; assay type: cell-based, human; details: 10 nM, normalized to mock
# Method: as §1, §2, §3
# [9] = test system: Huh7; experiment: Caspase 3/7 apoptosis assay; assay type: cell-based, human; details: 10 nM, normalized to mock
# Method: as §1, §2, §3
# [10] = test system: A2058 melanoma cells; experiment: Malachite Green Phosphate Assay (free phosphate generation); assay type: cell-based, human; details: miRNA-193a-3p at 10 nM, vs untreated, mock, scrambled
# Method: 2000 A2058 melanoma cells were seeded per well in a 96 well plate. 24h after seeding, cells were transfected with different concentrations of miRNA-193a-3p, scrambled control, siNT5E and siPool as control. Malachite Green Phosphate Assay (Sigma Aldrich) was used to measure the liberation of phosphate from nucleoside triphosphates ATP following inhibition of CD39 (ENTPD1) and CD73 (NT5E) as target genes of miRNA-193a-3p 24h and 48h post transfection. The rapid colour formation from the reaction can be conveniently measured on a plate reader (600-660 nm).
# [11] = test system: NT5E and ENTPD1; experiment: NT5E and ENTPD1 expression at mRNA and protein level (RT-PCR, western blot); assay type: cell-based; details: 10 nM, variety of cell lines
# Method: To prepare cDNA, first 100 ng total RNA was mixed with Random Hexamers (Qiagen; final concentration 2 μM) in a final volume of 12.5 μl in NFW, denatured for 5 min at 70° C. and immediately cooled on ice. Next, 7.5 μl of a cDNA synthesis mix was added, consisting of 4 μl 5×RT Buffer (Promega), 0.4 μl 25 mM dNTPs (Promega), 1 μl 200 U/μL MMLV RT-enzyme (Promega), 0.5 μL 40 U/μL RNAse Inhibitor (Promega) and 1.6 μL NFW. The following cDNA synthesis protocol was used:
# Approximately 1×10^6 cells were harvested and lysed in immunoprecipitation RIPA lysis buffer and the lysates were blotted onto a PVDF membrane. Membranes were probed overnight with primary antibodies and bound antibodies were visualized using HRP-linked secondary antibodies (Cell-Signalling). The antibodies used for western blot included anti-NT5E (D7F9A) from Cell Signalling Technology, and anti-αTubulin from Santa Cruz. αTubulin was used as a loading control for the western blot experiment.
# To assess the impact of miRNA-193a-3p on adenosine generation, the release of free phosphate in A2058 melanoma cells was measured as a read out for ATP, ADP, and AMP dephosphorylation in supernatants. […] Similar results were found by measuring the direct amount of adenosine in cell culture supernatants (FIG. 16B). Further, the role of miRNA-193a in A2058 cancer cell migration was investigated.
# [12] = test system: orthotopic human Hep3b hepatocellular carcinoma tumors; experiment: Tumor growth inhibition, orthotopic Hep3b model, AFP levels and tumor weights (Example 4.3); assay type: in vivo, mice; details: formulated in diamino lipid nanoparticles, iv
# Method: Seven to 8 weeks old female SCID/Beige mice (Shanghai Lingchang Bio-Technology Co. Ltd, Shanghai, China) were orthotopically implanted with a single 2×2×2 mm piece of a subq grown Hep3b tumor into the left liver lobe. Mice were randomized based on day 21 AFP levels. At the time of randomization, the AFP levels (ng/ml plasma) ranged between 1019 and 19779 ng/ml (median 5203, IQR=2690-9498). Treatments started on day 22 and continued for three weeks (see Table 8 for dosing scheme). AFP was measured once a week (4 times in total), and BW was measured twice a week. At the end of the study tumor weights were also determined. QDx3, QDx5=one injection per day for three or five consecutive days; BIW=twice a week; BID=twice daily; po=per oral.
substance,measurement,setting,value
"miRNA-193a: duplex of the miRNA-193a-3p of SEQ ID NO: 218 (mimic, sense) with antisense strand SEQ ID NO: 219; naked in vitro, formulated in vivo (sense UGGGACUUUGUAGGCCAGUUTT; antisense AACUGGCCUACAAAGUCCCAGU; chemistry not given here; listed as Homo sapiens)",Apoptosis (48/72 h),[1],↑ (Induction < 2x)
same,Apoptosis (48/72 h),[2],↑↑ (Induction > 2x)
same,Apoptosis (48/72 h),[3],↑↑ (Induction > 2x)
same,Apoptosis (48/72 h),[4],↑ (Induction < 2x)
same,Apoptosis (48/72 h),[5],↑↑ (Induction > 2x)
same,Apoptosis (48/72 h),[6],↑ (Induction < 2x)
same,Apoptosis (48/72 h),[7],↑↑ (Induction > 2x)
same,Apoptosis (48/72 h),[8],↑↑ (Induction > 2x)
same,Apoptosis (48/72 h),[9],↑ (Induction < 2x)
same,Free phosphate generation,[10],reduced the level of free phosphate production
same,"Expression of both enzymes involved in adenosine generation pathway (NT5E, ENTPD1)",[11],downregulated the expression of both enzymes
same,"TGI effects (AFP levels, tumor weights)",[12],significant TGI effects

# Reference: patent publication US20210038732A1, “ANTICANCER MICRORNA AND LIPID FORMULATIONS THEREOF” (INTERNA TECHNOLOGIES B.V., priority 2018, published 2021)
